A value given as a limit tells only on which side of the number the result lay.

Test [1] relates to 3-Hydroxy-3-Methylglutaryl Coenzyme A Reductase (HMGR). The test can be described thus: HMGR Suppression Assay in digitonin-permeabilized CHO cells. The test is classed as cell-based, Chinese Hamster. As to conditions: 6 hr incubation at 37°, amount to suppress HMGR activity by 50% relative to controls. On the procedure:
The ability of the compounds of Formula I to suppress the activity of HMGR, the rate limiting enzyme of cholesterol biosynthesis, was tested as follows. Chinese Hamster Ovary (CHO) cells were divided twice weekly and were maintained in McCoy's 5A medium supplemented with 1% Cab-O-Sil delipidated Fetal Bovine Serum (FBS) (obtained from Gibco Laboratories, Chagrin Falls, Ohio). Cells were harvested during the logarithmic phase of growth and cell cultures were prepared by adding 0.5×10^6 cells to wash well in a 24 well cluster dish (obtained from Costar, Data Packaging Corp., Cambridge, Mass.) employing 1 mL of the above medium per each well. […] Control cells were treated in an identical fashion to those which received test compound, except they were incubated with the BSA and ethanol suspension only.
Specifically, the medium in each well was aspirated and the cells rinsed with a 50 mM solution of phosphate buffered saline (PBS). One mL of 30 μg/mL of digitonin in CSK buffer (prepared using 10 mM Pipes [piperazine-N,N'-bis(2-ethansulfonic)acid'], 100 mM KCl, 2.5 mM MgCl2, 300 mM sucrose, 1 mM EGTA, pH 6.8) was added to each well and incubated for 10 min at 22° to permeabilize the cells. The buffer was carefully aspirated and the wells were rinsed twice each time with 1 mL of PBS. HMGR activity was measured directly by adding 75 μL of PIB buffer (50 mM potassium phosphate, 1 mM Na2 EDTA, 10 mM dithiothreitol, pH 7.4) to each well and incubating the cells for 30 minutes at 37° as described above. […] HMG-Coenzyme A (15 DPM/pmol), pH 7.4. The assay mixture was incubated for 30 min at 37° and terminated by the addition of 70 μL of [^3 H]-mevalonic acid (35,000 DPM/assay), 0.15 mg/mL in 3 N HCl. The reaction was left to lactonize for an additional 30 min at 37° or overnight at room temperature.
Reaction products were separated by thin layer chromatography on silica gel G (obtained from Analtech, Newark, Del.) developed in an unsaturated environment with acetone:benzene (3:2, v:v). The band corresponding to mevalonolactone was identified by exposure to iodine vapor and was scraped into counting vials. The extent of conversion of starting substrate, HMG-CoA, to mevalonic acid was determined by liquid scintillation counting in Biofluor (obtained from New England Nuclear, Boston, Mass). Corrections for recovery and blank values were made for each sample. Protein determinations were made by the Bio-rad (Bio-Rad, Richmond, Cal.) dye binding assay according to the manufacturer's instruction using bovine serum albumin as standard. Cellular protein was solubilized from culture dishes by the addition of 20 μL of 16 N KOH and assayed directly for protein amount. Suppression values are expressed as the amount of compound required to suppress HMGR activity by 50% relative to that of the controls.

The target in test [2] is T1, Lanosta-8,24-dien-3β-ol 14α-methyl demethylase (Rattus norvegicus, UniProt Q64654).
T1 construct: determined in rat depatic microsomal preparations; from tissue; host or cells: rat hepatic microsomes
T1 sequence (Q64654 1-503): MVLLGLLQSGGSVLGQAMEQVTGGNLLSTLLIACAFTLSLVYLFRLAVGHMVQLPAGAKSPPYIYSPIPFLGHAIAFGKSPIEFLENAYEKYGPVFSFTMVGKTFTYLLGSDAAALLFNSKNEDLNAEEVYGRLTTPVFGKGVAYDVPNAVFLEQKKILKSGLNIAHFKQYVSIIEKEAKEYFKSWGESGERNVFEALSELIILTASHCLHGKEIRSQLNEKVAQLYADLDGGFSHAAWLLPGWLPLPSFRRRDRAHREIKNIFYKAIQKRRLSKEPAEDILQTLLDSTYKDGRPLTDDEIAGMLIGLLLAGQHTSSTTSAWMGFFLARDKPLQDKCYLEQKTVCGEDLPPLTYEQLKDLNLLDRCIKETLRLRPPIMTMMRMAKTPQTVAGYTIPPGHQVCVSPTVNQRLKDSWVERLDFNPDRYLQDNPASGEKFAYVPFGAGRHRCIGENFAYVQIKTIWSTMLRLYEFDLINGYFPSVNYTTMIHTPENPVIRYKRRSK
In words: Lanosta-8,24-dien-3β-ol 14α-Methyl Demethylase Inhibition Assay. The test is classed as biochemical. The note with it: rat hepatic microsomal preparations, 100 μM lanost-8-en-3β-ol substrate, pH not given; test compounds 0 to 100 μM. The protocol: Lanosta-8,24-dien-3β-ol 14α-methyl demethylase activity was determined in rat depatic microsomal preparations as described in Trzaskos et al., J. Biol. Chem., 261, 16937-16942 (1986). Specifically, test compounds were added to assay mixtures as detergent suspensions with substrate employing 5 mg Triton WR-1339, 100 μM lanost-8-en-3β-ol substrate, and test compounds ranging from 0 to 100 μM. The inhibitor/substrate/detergent suspension was incubated with 2 mg microsomal protein for 5 min at 37° followed by a 10 min incubation initiated by the addition of cofactors required for the reaction. […] Inhibition values are expressed as the amount of compound required to inhibit lanosta-8,24-dien-3β-ol 14α-methyldemethylase activity by 50% relative to that of the controls.

Test [3] has as its system cholesterol synthesis in CHO cells. The test can be described thus: De novo cholesterol synthesis: incorporation of radiolabeled acetate into cholesterol in CHO cells. The test is classed as cell-based, Chinese Hamster. As to conditions: for Cholesterol Synthesis (DPMs): 17 hr + 2 hr with [14C]-acetic acid, Control 38855. The protocol:
The ability of the compounds of Formula I to decrease de novo cholesterol synthesis was tested by measuring the incorporation of radiolabeled acetate into cholesterol synthesized in CHO cells. To conduct this experiment, CHO cells were plated at 0.3×10^6 cells per 15×60 mm tissue culture dish in 5 mL of McCoy's modified medium (Gibco Laboratories) containing 1% Cab-O-Sil delipidated FBS and incubated for 48 hours at 37° in a 5% CO2, 95% air environment. Test compounds in a 2.5% suspension of BSA (fatty acid free) in ethanol were then added to the cultures such that the final ethanol and BSA concentrations were 0.5% and […], respectively. Control cultures received ethanol and BSA alone. The cultures containing test compounds were then incubated at 37° in a 5% Co, 95% air environment for 17 hr before the addition of [1,2-^14 C]-acetic acid (57 μCi/mmol); obtained from New England Nuclear, Boston, Mass.) at a concentration of 10 μCi/mL for 2 additional hr.
The cells were harvested by washing the cells twice with 5 mL of cold PBS and scraping the cells into 1 mL PBS. The cell-containing solution was then transferred to 15 mL extraction tubes and treated with 1 mL of 90% methanol (containing 15% KOH, 100 μg/mL butylated hydroxytoluene). All samples were saponified for 1 hr at 80° and the non-saponifiable lipids then extracted with petroleum ether. The petroleum ether fractions were dried under nitrogen, resuspended in ethanol, counted and analyzed by reverse phase HPLC at 45° using an Ultrashpere Octyl column (from Altex Scientific Inc., Berkeley, Calif.) with a mobile phase of acetonitrile:methanol:water (44:44:12). The amount of cholesterol synthesis is measured by the amount of radiolabeled acetate incorporated into the cholesterol peak. The percent of cholesterol synthesis in the treated culture is calculated based upon the control culture.

A short description of test [4]: Lowering blood (plasma) cholesterol levels in hamsters. The test is classed as in vivo, Male Golden Syrian hamsters. The note with it: 0.2% (w/w) in diet, 7 days, N = 16, means±SEM. The protocol:
Male Golden Syrian hamsters (50-60 grams) were obtained from Charles River, Inc. (Wilmington, Mass.). Animals were housed in individual suspension cages and were maintained on a light cycle consisting of 12 hours of light followed by 12 hours of dark. Animals were allowed free access to water and feed (Agway ground chow, RMH 3200, Agway, Syracuse, N.Y.) containing 1% (w/w) corn oil) for a minimum of 4 weeks. Following this stabilization period a sample of blood was collected by orbital sinus bleeding under light ether anesthesia into heparinized capillary tubes. Plasma was separated by centrifugation (600×g for 10 minutes) and plasma cholesterols were determined by an autoanalyzer (Centrifichem 600, Baker Instruments, Allentown, Pa.). Based upon measured plasma cholesterol values, the animals were randomized into two groups such that the mean plasma cholesterol values were identical for both groups.
Animals in the two groups were then placed on one of two diets: (1) Diet A, consisting of ground chow plus 1% (w/w) corn oil, as described above; or (2) Diet B, consisting of Diet A plus 0.2% (w/w) of a test compound. Animals on Diet B, the treated animals, were allowed free access to feed and water, while animals on Diet A were pair-matched with Diet B animals and served as pair-fed controls. […] Total plasma cholesterol levels were determined as described above. […]

[5] abbreviates: Cricetulus griseus, 19 h, 0.5 μM, percent of control culture (100).

Consider `CC(C)CCC[C@@H](C)[C@H]1CC[C@@]2(C=NO)C3=CC[C@H]4C(C)(C)[C@@H](O)CC[C@]4(C)[C@H]3CC[C@]12C` [Compound 15b, lanost-7-en-32-aldoxime-3β-ol], for which the half-inhibitory concentration (IC50) worked out at 1400 nM in test [1] and 3000 nM in test [2]. Moreover, in test [3] (0.5 μM), the “Cholesterol Synthesis (DPMs)” value was 1534 DPMs. The activity at 0.5 µM in test [3] (setting [5]) amounted to 4%.
As for `CC(C)CCC[C@@H](C)[C@H]1C[C@H](F)[C@@]2(C)C3=CC[C@H]4C(C)(C)[C@@H](O)CC[C@]4(C)[C@H]3CC[C@]12C` [Compound 26b, 15α-fluoro-lanost-7-en-3β-ol], the IC50 in test [1] was 1000 nM; in test [2], over 100000 nM. For the same compound, the “Cholesterol Synthesis (DPMs)” value in test [3] (10 μM) came to 12279 DPMs. In test [3] (Cricetulus griseus, 19 h, 10 μM, percent of control culture (100)), this compound registered an activity at 10 µM of 32%.
Consider `CC(C)CCC[C@@H](C)[C@H]1CC(=NO)[C@@]2(C)C3=CC[C@H]4C(C)(C)[C@@H](O)CC[C@]4(C)[C@H]3CC[C@]12C` [Compound 31b, 3β-hydroxy-lanost-7-en-15-oxime], for which the half-maximal inhibitory concentration (IC50) in test [1] stood at 200 nM; in test [2], 55000 nM. Further, the “Cholesterol Synthesis (DPMs)” value in test [3] (0.5 μM) amounted to 24064 DPMs. Also, the activity at 0.5 µM in test [3] (setting [5]) stood at 62%. The “Plasma Cholesterol, Treated” value in test [4] (pair-fed control 136.0 ± 4.8) came out at 69.6 ± 2.6 mg/dL.
Consider `CC(C)CCC[C@@H](C)[C@H]1C[C@H](O)[C@@]2(O)C3=C(CC[C@]12C)[C@@]1(C)CC[C@H](O)C(C)(C)[C@@H]1CC3` [Compound 34a, 4,4-dimethyl-5α-cholest-8-en-3β,14α,15α-triol], for which the figures for the IC50 in test [1] and in test [2] were 500 nM and 3000 nM, respectively. In test [3] (1 μM), the “Cholesterol Synthesis (DPMs)” value turned out to be 16521 DPMs. In addition, the activity at 1 µM in test [3] (Cricetulus griseus, 19 h, 1 μM, percent of control culture (100)) is 43%. Moreover, in test [4] (pair-fed control 136.0 ± 3.5), the “Plasma Cholesterol, Treated” value was found to be 119.3 ± 2.3 mg/dL.

As usually defined, the IC50 is the point on the concentration scale where inhibition reaches its midpoint.

The values above are taken from patent US5034548A, “Steroid derivatives useful as hypocholesterolemics” (E. I. Du Pont de Nemours and Company, priority 1990, dated 1991).
